Measurements: patent EP0387527A1, “Process for the fermentative production of L-lysine” (Degussa Aktiengesellschaft, priority 1989, dated 1990)
Like-named read-outs stand apart in the source and are kept apart here.

Columns and labels:
Type in all cases: biochemical
[1] = target: Aspartat-Kinase (AK), C. glutamicum ATCC13032 (pCS233) (Corynebacterium glutamicum, UniProt P26512); experiment: Aspartate kinase test, residual activity with effector combinations
Protocol: (§1) Die Stämme ATCC13032 und DM58-1 wurden unter direkt vergleichbaren Bedingungen in Standard I Bouillon (Merck Art. Nr. 7882) mit zusätzlichen 4 g/l Glucose und 1 mM MgCl₂ bei 30 °C und 150 rpm bis zum Erreichen der früh stationären Phase kultiviert und durch Zentrifugation vom Kulturmedium getrennt. Man wäscht 3 Mal mit 100 mM Tris/HCl (pH 7,5); 1 mM DTT und suspendiert die Feuchtzellmasse in einem Volumenteil des gleiche Puffers.
(§2) Die so suspendierten Zellen wurden in einer Kugelmühle (B. Braun Melsungen - MSK-Homogenisator, IMA-Disintegrator S) durch Verrühren mit einer geeigneten Menge an Glasperlen aufgeschlossen. Das Zellhomogenat wurde mittels Glasfilternutsche von den Glasperlen getrennt und 30 Minuten bei 30000 x g klarzentrifugiert.
(§3) Nach 15stündiger Dialyse in Enzym-stabilisierendem Puffer wurden die Enzymaktivitäten in folgenden Testgemischen bestimmt:
(§4) Aspartat-Kinase Test: 100 mM Tris/HCl (pH 7,5), 1 mM DTT, 400 mM (NH₄)₂SO₄, 20 mM MgCl₂, 400 mM NH₂OH·HCl, 300 mM L-Aspartat, 40 mM ATP und verschiedene Mengen Enzympräparation. Durch Zugabe von 750 µl einer Lösung aus 10 % Fe Cl₃ 6H₂O; 3,3 % TCA; 0,7 N HCl zu 500 µl des Enzymtestgemisches wird die Enzymreaktion nach 30 minütiger Inkubation bei 37 °C gestoppt. Aus der mittels Eichkurvenverfahren photometrisch (ΔE540 nm) bestimmten Aspartyl-beta-Hydroxamat Konzentration wird die in µMol/mg·min (U/mg) angegebenen Enzymaktivität kalkuliert. Die zugehörigen Proteinkonzentrationen wurden nach der Methode von Lowry et al. (Lowry et al. J. Biol. Chem. 193, 265 (1951)) oder Bradford (Bradford Anal. Biochem. 72, 248 (1976)) durchgeführt. Der Aspartyl-β-semialdehyd Dehydrogenase Test enthält 120 mM Diethanolamin (pH 9,0); 40 mM Na AsO₄; 1 mM NADP⁺; 5 mM L-Threonin; 1,3 mM Aspartyl-beta-semialdehyd und verschiedene Mengen Enzympräparation in einem Gesamtvolumen von 1 ml. Die in µMol/mg·min (U/mg) angegebene Aktivitat wird über die photometrisch […] bestimmte NADPH Synthesegeschwindigkeit berechnet.
(§5) Aspartat-Kinase-Aktivität wurde in Stamm ATCC13032/pCS2, als positive Kontrolle in Stamm DM58-1 und als negative Kontrolle in Stamm ATCC13032 gemessen. Die Stämme wurden in Standard I Bouillon, das mit 4 g/l Glucose, 10 µg/ml Kanamycin und 1 mM MgCl₂ supplementiert war, kultiviert. Kulturbedingungen, Zellernte, Zellaufschluß und Bestimmung der Aspartat-Kinase wurden, wie unter 1.2 beschrieben, durchgeführt. Die Effektoren L-Lys, L-Thr und AEC werden jeweils als Stammlösungen in 100 mM Tris/HCl Puffer mit einem pH von 7,5 zugegeben.
(§6) Die Aspartat-Kinase-Aktivität und die Hemmbarkeit der Enzymaktivität durch Mischungen von Lysin bzw. AEC und Threonin wurde in den konstruierten Klonen bestimmt. Anzucht, Aufschluß und Aktivitätsbestimmung wurden, wie oben beschrieben, durchgeführt. Außerdem wurde die Fahigkeit der verschiedenen Klone untersucht, L-Lysin auszuscheiden. Hierfür wurde ein Agarplatten-Diffusionstest mit einem L-Lysin-auxotrophen Indikationsstamm von C. glutamicum verwendet. Aus Tabelle 4 ist zu entnehmen, daß sämtliche AEC resistenten Stämme eine partiell deregulierte Aspartat-Kinase-Aktivität besitzen und in der Lage sind, L-Lysin auszuscheiden. Tabelle 3

[2] = target: Aspartat-Kinase (AK), C. glutamicum DM58-1 (pZ1) (Corynebacterium glutamicum, UniProt P26512); experiment: as above
Protocol: as §1, §2, §3, §4, §5, §6

[3] = target: Aspartat-Kinase (AK), C. glutamicum ATCC13032 (pCS24) (Corynebacterium glutamicum, UniProt P26512); experiment: as above
Protocol: as §1, §2, §3, §4, §5, §6

[4] = target: Aspartat-Kinase (AK), C. glutamicum ATCC13032 (pCS2) (Corynebacterium glutamicum, UniProt P26512); experiment: as above
Protocol: as §1, §2, §3, §4, §5, §6

[5] = target: Aspartat-Kinase (AK), C. glutamicum ATCC13032 (pCS23) (Corynebacterium glutamicum, UniProt P26512); experiment: as above
Protocol: as §1, §2, §3, §4, §5, §6

[6] = target: Aspartat-Kinase (AK), C. glutamicum ATCC13032 (pCS26) (Corynebacterium glutamicum, UniProt P26512); experiment: as above
Protocol: as §1, §2, §3, §4, §5, §6

[7] = target: T1, Aspartat-Kinase (AK) aus C. glutamicum ATCC13032 (Wildtyp-Enzym) (Corynebacterium glutamicum, UniProt P26512); experiment: Aspartate kinase test (hydroxamate), inhibition by effector combinations, dialysed crude extract
T1 construct: Rohextrakten identisch gezogener; endogenous in cells; host or cells: C. glutamicum ATCC13032, dialysed crude extract
T1 sequence (P26512 1-421): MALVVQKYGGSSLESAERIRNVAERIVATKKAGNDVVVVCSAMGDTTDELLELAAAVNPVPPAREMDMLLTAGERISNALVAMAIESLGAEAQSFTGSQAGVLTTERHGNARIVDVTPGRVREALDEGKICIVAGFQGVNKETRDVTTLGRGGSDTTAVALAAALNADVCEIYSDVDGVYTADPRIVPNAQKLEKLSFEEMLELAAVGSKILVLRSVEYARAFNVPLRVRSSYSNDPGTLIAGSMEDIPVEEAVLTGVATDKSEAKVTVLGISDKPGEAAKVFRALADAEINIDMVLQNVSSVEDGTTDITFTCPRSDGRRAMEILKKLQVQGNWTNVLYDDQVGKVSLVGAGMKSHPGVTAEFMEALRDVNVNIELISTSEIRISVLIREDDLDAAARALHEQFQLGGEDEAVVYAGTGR
T1 sequence (P26512 1-172 isoform P26512-2): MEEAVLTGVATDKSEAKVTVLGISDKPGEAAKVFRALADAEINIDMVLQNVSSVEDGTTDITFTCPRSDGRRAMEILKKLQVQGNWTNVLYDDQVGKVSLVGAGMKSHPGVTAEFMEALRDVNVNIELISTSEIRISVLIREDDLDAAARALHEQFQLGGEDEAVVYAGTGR
Protocol: as §1, §2, §3, §4
(§7) Tabelle 1 zeigt, das die bereits von K. Nakayama et al. (K. Nakayama et al. Agr. Biol. Chem. 30, 611 (1966)) angedeutete und von S.N. Kara-Murza et al. (S.N. Kara-Murza Prikladnaya Biokhimiya; Mikrobiologia 14, 345 (1978)) genauer untersuchte Hemmbarkeit des C. glutamicum Wildtyp-Enzyms durch uns reproduziert werden konnte. Dem gegen-übergestellt ist der deutlich differente Charakter des Enzyms der AEC resistenten Mutante DM58-1, deren Aspartat-Kinase nicht mehr konzertiert durch L-Lysin + L-Threonin hemmbar ist. Durch die am Enzym aus ATCC13032 Lysin-analog wirkenden Substanzen S-Aminoethyl-D,L-Cystein (AEC) wird das Enzym der Mutanten ebenfalls nur noch gering beeinflußt. Tabelle 1

[8] = target: Aspartat-Kinase (AK) aus C. glutamicum DM58-1 (AEC resistente Mutante von ATCC13032) (Corynebacterium glutamicum, UniProt P26512); experiment: as above
Protocol: as §1, §2, §3, §4, §7

[9] = target: Aspartat-Kinase (AK), C. glutamicum ATCC13032 (pCS21) (Corynebacterium glutamicum, UniProt P26512); experiment: Aspartate kinase test, residual activity with effector combinations
Protocol: as §1, §2, §3, §4, §5, §6

[10] = target: Aspartat-Kinase (AK), C. glutamicum ATCC13032 pCS22 (Corynebacterium glutamicum, UniProt P26512); experiment: as above
Protocol: as §1, §2, §3, §4, §5, §6

NCCSCC(N)C(=O)O (racemic) [AEC, S-(Aminoethyl)-D,L-Cystein]
AK Restaktivität (%) in Anwesenheit von 100mM AEC 10mM Thr ([1]; 100mM AEC + 10mM Thr): 57%
AK Restaktivität (%) in Anwesenheit von 100mM AEC 10mM Thr ([2]; 100mM AEC + 10mM Thr): 93%
AK Restaktivität (%) in Anwesenheit von 100mM AEC 10mM Thr ([3]; 100mM AEC + 10mM Thr): 62%
AK Restaktivität (%) in Anwesenheit von 100mM AEC 10mM Thr ([4]; 100mM AEC + 10mM Thr): 56%
AK Restaktivität (%) in Anwesenheit von 100mM AEC 10mM Thr ([5]; 100mM AEC + 10mM Thr): 56%
AK Restaktivität (%) in Anwesenheit von 100mM AEC 10mM Thr ([6]; 100mM AEC + 10mM Thr): 60%
inhibition at 10000 µM ([7]; 10 mM AEC + 1 mM L-Thr, read-out: AK-Hemmung): 12%
inhibition at 10000 µM ([7]; 10 mM AEC + 10 mM L-Thr, read-out: AK-Hemmung): 41%
inhibition at 100000 µM ([7]; 100 mM AEC + 10 mM L-Thr, read-out: AK-Hemmung): 95%
AK-Hemmung ([8]; 10 mM AEC + 1 mM L-Thr): 0%
AK-Hemmung ([8]; 10 mM AEC + 10 mM L-Thr): 0%
AK-Hemmung ([8]; 100 mM AEC + 10 mM L-Thr): 7%

NCCCC[C@H](N)C(=O)O [L-Lys, L-Lysin]
AK Restaktivität (%) in Anwesenheit von 10mM Lys 1mM Thr ([1]; 10mM Lys + 1mM Thr): 56%
AK Restaktivität (%) in Anwesenheit von 10mM Lys 10mM Thr ([1]; 10mM Lys + 10mM Thr): 62%
AK Restaktivität (%) in Anwesenheit von 100mM Lys 10mM Thr ([1]; 100mM Lys + 10mM Thr): 36%
AK Restaktivität (%) in Anwesenheit von 10mM Lys 1mM Thr ([2]; 10mM Lys + 1mM Thr): 83%
AK Restaktivität (%) in Anwesenheit von 10mM Lys 10mM Thr ([2]; 10mM Lys + 10mM Thr): 100%
AK Restaktivität (%) in Anwesenheit von 100mM Lys 10mM Thr ([2]; 100mM Lys + 10mM Thr): 79%
AK Restaktivität (%) in Anwesenheit von 10mM Lys 1mM Thr ([3]; 10mM Lys + 1mM Thr): 65%
AK Restaktivität (%) in Anwesenheit von 10mM Lys 10mM Thr ([3]; 10mM Lys + 10mM Thr): 65%
AK Restaktivität (%) in Anwesenheit von 100mM Lys 10mM Thr ([3]; 100mM Lys + 10mM Thr): 40%
AK Restaktivität (%) in Anwesenheit von 10mM Lys 1mM Thr ([4]; 10mM Lys + 1mM Thr): 55%
AK Restaktivität (%) in Anwesenheit von 10mM Lys 10mM Thr ([4]; 10mM Lys + 10mM Thr): 55%
AK Restaktivität (%) in Anwesenheit von 100mM Lys 10mM Thr ([4]; 100mM Lys + 10mM Thr): 28%
AK Restaktivität (%) in Anwesenheit von 10mM Lys 1mM Thr ([5]; 10mM Lys + 1mM Thr): 51%
AK Restaktivität (%) in Anwesenheit von 10mM Lys 10mM Thr ([5]; 10mM Lys + 10mM Thr): 57%
AK Restaktivität (%) in Anwesenheit von 100mM Lys 10mM Thr ([5]; 100mM Lys + 10mM Thr): 30%
AK Restaktivität (%) in Anwesenheit von 10mM Lys 1mM Thr ([9]; 10mM Lys + 1mM Thr): 46%
AK Restaktivität (%) in Anwesenheit von 10mM Lys 10mM Thr ([9]; 10mM Lys + 10mM Thr): 50%
AK Restaktivität (%) in Anwesenheit von 100mM Lys 10mM Thr ([9]; 100mM Lys + 10mM Thr): 24%
AK Restaktivität (%) in Anwesenheit von 10mM Lys 1mM Thr ([10]; 10mM Lys + 1mM Thr): 40%
AK Restaktivität (%) in Anwesenheit von 10mM Lys 10mM Thr ([10]; 10mM Lys + 10mM Thr): 41%
AK Restaktivität (%) in Anwesenheit von 100mM Lys 10mM Thr ([10]; 100mM Lys + 10mM Thr): 22%
AK Restaktivität (%) in Anwesenheit von 10mM Lys 1mM Thr ([6]; 10mM Lys + 1mM Thr): 64%
AK Restaktivität (%) in Anwesenheit von 10mM Lys 10mM Thr ([6]; 10mM Lys + 10mM Thr): 63%
AK Restaktivität (%) in Anwesenheit von 100mM Lys 10mM Thr ([6]; 100mM Lys + 10mM Thr): 39%
inhibition at 10000 µM ([7]; read-out: AK-Hemmung, 10 mM L-Lys + 1 mM (second inhibitor not named, L-Thr)): 89%
inhibition at 10000 µM ([7]; read-out: AK-Hemmung, 10 mM L-Lys + 10 mM L-Thr): 95%
inhibition at 100000 µM ([7]; read-out: AK-Hemmung, 100 mM L-Lys + 10 mM L-Thr): 99%
AK-Hemmung ([8]; 10 mM L-Lys + 1 mM (second inhibitor not named, L-Thr)): 12%
AK-Hemmung ([8]; 10 mM L-Lys + 10 mM L-Thr): 2%
AK-Hemmung ([8]; 100 mM L-Lys + 10 mM L-Thr): 21%
